Data as given in patent US20260062422A1 (Halda Therapeutics OpCo, Inc., priority 2022, published 2026).

Columns and labels:
T47D cells = experiment: Cellular growth inhibition assay for T47D cells, CellTiter-Glo; format: cell-based, human; conditions: 72 hours treatment, CellTiter-Glo 2.0 cell viability
Summary of the method: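 Cells are plated at 3000/well and allowed 24 h before treatment. Test compound in medium containing 0.5% DMSO is then added, with DMSO-only wells as negative control, and plates are incubated 72 h at 37 °C. ATP luminescence (CellTiter-Glo 2.0) is then fitted to four parameters to derive GI50.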

[1] = tested on: T-Rex 293 cell line SC3 cells having increased expression of androgen receptor protein due to exposure to doxycycline; experiment: Cellular growth inhibition, T-Rex 293 SC3 cells with doxycycline (androgen receptor induced), CellTiter-Glo; format: cell-based; conditions: T-Rex 293 SC3 cells with 10 ng/mL doxycycline (increased androgen receptor expression)
Summary of the method: (§1)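 GI50 came from a four-parameter fit of CellTiter-Glo 2.0 luminescence after 72 h compound exposure (0.5% DMSO, 37 °C), dosing 24 h post-seeding. SC3 clone cells (2500/well), transfected with wild-type androgen receptor, grew in charcoal-stripped serum medium lacking phenol red, induced with 10 ng/mL doxycycline or left uninduced.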

VCaP cells = experiment: Cellular growth inhibition assay for VCaP cells, CellTiter-Glo; format: cell-based, human; conditions: 72 hours treatment, CellTiter-Glo 2.0
Summary of the method: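 GI50 values come from four-parameter curve fits of luminescence data normalized to a zero baseline. Compound, in medium with 0.5% DMSO, was added one day after plating and left for 72 h before CellTiter-Glo 2.0 addition.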

[2] = tested on: T-Rex 293 cell line SC3 cells lacking increased expression of androgen receptor protein; experiment: Cellular growth inhibition, T-Rex 293 SC3 cells without doxycycline, CellTiter-Glo; format: cell-based; conditions: T-Rex 293 SC3 cells not exposed to doxycycline, CellTiter-Glo 2.0
Summary of the method: as §1

| Compound | GI50 (T47D cells; Homo sapiens, T47D, 72 h) | GI50 ([1]; 72 h) | GI50 (VCaP cells; Homo sapiens, VCaP, 72 h) | GI50 ([2]; 72 h) | GI50 (T47D cells) | GI50 ([1]; 72 hours) | GI50 (VCaP cells) | GI50 ([2]; 72 hours) |
| --- | --- | --- | --- | --- | --- | --- | --- | --- |
| Cc1sc2c(c1C)C(c1ccc(OCC[C@@H]3CCCN(c4ncc(C(=O)N[C@H]5C(C)(C)[C@H](Oc6ccc(C#N)c(Cl)c6)C5(C)C)cn4)C3)cc1)=N[C@@H](Cc1ncco1)c1nnc(C)n1-2 [Compound I-300] | < 500 nM | < 500 nM | < 500 nM | 500 to 1500 nM | – | – | – | – |
| Cc1sc2c(c1C)C(c1ccc(OCC[C@H]3CCCN(c4ncc(C(=O)N[C@H]5C(C)(C)[C@H](Oc6ccc(C#N)c(Cl)c6)C5(C)C)cn4)C3)cc1)=N[C@@H](Cc1ncco1)c1nnc(C)n1-2 [Compound I-301] | < 500 nM | < 500 nM | < 500 nM | 500 to 1500 nM | – | – | – | – |
| Cc1sc2c(c1C)C(c1ccc([C@H]3CCCN(c4ncc(C(=O)N[C@H]5C(C)(C)[C@H](Oc6ccc(C#N)c(Cl)c6)C5(C)C)cn4)C3)cc1)=N[C@@H](Cc1ncco1)c1nnc(C)n1-2 [Compound I-302] | < 500 nM | < 500 nM | < 500 nM | 500 to 1500 nM | – | – | – | – |
| Cc1sc2c(c1C)C(c1ccc(C[C@H]3CC[C@@H]4CN(c5ncc(C(=O)N[C@H]6C(C)(C)[C@H](Oc7ccc(C#N)c(Cl)c7)C6(C)C)cn5)CCN4C3)cc1)=C[C@H](Cc1ncco1)c1nnc(C)n1-2 [Compound I-306] | < 500 nM | < 500 nM | < 500 nM | < 500 nM | – | – | – | – |
| Cc1sc2c(c1C)C(c1ccc(C[C@H]3CC[C@@]4(C3)CN(c3ncc(C(=O)N[C@H]5C(C)(C)[C@H](Oc6ccc(C#N)c(Cl)c6)C5(C)C)cn3)CCO4)cc1)=N[C@@H](Cc1ncco1)c1nnc(C)n1-2 [Compound I-311] | < 500 nM | < 500 nM | < 500 nM | < 500 nM | – | – | – | – |
| Cc1sc2c(c1C)C(c1ccc(C[C@@H]3CC[C@]4(C3)CN(c3ncc(C(=O)N[C@H]5C(C)(C)[C@H](Oc6ccc(C#N)c(Cl)c6)C5(C)C)cn3)CCO4)cc1)=N[C@H](Cc1ncco1)c1nnc(C)n1-2 [Compound I-312] | 1500 to 3000 nM | < 500 nM | < 500 nM | < 500 nM | – | – | – | – |
| Cc1sc2c(c1C)C(c1ccc(N3CCC[C@H](C(=O)N4CCCC4c4ncc(C(=O)N[C@H]5C(C)(C)[C@H](Oc6ccc(C#N)c(Cl)c6)C5(C)C)cn4)C3)cc1)=N[C@@H](Cc1ncco1)c1nnc(C)n1-2 (stereo partly shown) [Compound I-314] | < 500 nM | < 500 nM | < 500 nM | > 3000 nM | – | – | – | – |
| Cc1sc2c(c1C)C(c1ccc(CN(C)C(=O)CCc3ncc(C(=O)N[C@H]4C(C)(C)[C@H](Oc5ccc(C#N)c(Cl)c5)C4(C)C)cn3)cc1)=N[C@@H](Cc1ncco1)c1nnc(C)n1-2 [Compound I-317] | 500 to 1500 nM | 1500 to 3000 nM | < 500 nM | > 3000 nM | – | – | – | – |
| Cc1sc2c(c1C)C(c1ccc(C[C@H]3CC[C@H]4CN(c5ncc(C(=O)N[C@H]6C(C)(C)[C@H](Oc7ccc(C#N)c(Cl)c7)C6(C)C)cn5)CCN4C3)cc1)=NC(Cc1ncco1)c1nnc(C)n1-2 (stereo partly shown) [Compound I-324] | < 500 nM | > 3000 nM | < 500 nM | < 500 nM | – | – | – | – |
| Cc1sc2c(c1C)C(c1ccc(OC3CCN(C4CCN(c5ncc(C(=O)N[C@H]6C(C)(C)[C@H](Oc7ccc(C#N)c(Cl)c7)C6(C)C)cn5)CC4)CC3)cc1)=N[C@@H](C)c1nnc(C)n1-2 [Compound I-325] | 500 to 1500 nM | < 500 nM | > 3000 nM | 1500 to 3000 nM | – | – | – | – |
| Cc1sc2c(c1C)C(c1ccc(CNC(=O)NCc3ncc(C(=O)N[C@H]4C(C)(C)[C@H](Oc5ccc(C#N)c(Cl)c5)C4(C)C)cn3)cc1)=N[C@@H](Cc1ncco1)c1nnc(C)n1-2 [Compound I-326] | 1500 to 3000 nM | 500 to 1500 nM | 500 to 1500 nM | > 3000 nM | – | – | – | – |
| Cc1sc2c(c1C)C(c1ccc(C(=O)N3CCN(Cc4ncc(C(=O)N[C@H]5C(C)(C)[C@H](Oc6ccc(C#N)c(Cl)c6)C5(C)C)cn4)CC3)cc1)=N[C@@H](Cc1ncco1)c1nnc(C)n1-2 [Compound I-327] | > 3000 nM | > 3000 nM | > 3000 nM | > 3000 nM | – | – | – | – |
| Cc1sc2c(c1C)C(c1ccc(C(=O)N3CCN(Cc4ncc(C(=O)N[C@H]5C(C)(C)[C@H](Oc6ccc(C#N)c(Cl)c6)C5(C)C)cn4)CC3)cc1)=N[C@H](Cc1ncco1)c1nnc(C)n1-2 [Compound I-328] | 1500 to 3000 nM | 1500 to 3000 nM | > 3000 nM | > 3000 nM | – | – | – | – |
| Cc1sc2c(c1C)C(c1ccc(N3CCC(C(=O)NCc4ncc(C(=O)N[C@H]5C(C)(C)[C@H](Oc6ccc(C#N)c(Cl)c6)C5(C)C)cn4)CC3)cc1)=N[C@@H](Cc1ncco1)c1nnc(C)n1-2 [Compound I-329] | < 500 nM | < 500 nM | < 500 nM | 500 to 1500 nM | – | – | – | – |
| Cc1sc2c(c1C)C(c1ccc(CCNC(=O)NCc3ncc(C(=O)N[C@H]4C(C)(C)[C@H](Oc5ccc(C#N)c(Cl)c5)C4(C)C)cn3)cc1)=N[C@H](Cc1ncco1)c1nnc(C)n1-2 [Compound I-330] | 1500 to 3000 nM | < 500 nM | 500 to 1500 nM | > 3000 nM | – | – | – | – |
| Cc1sc2c(c1C)C(c1ccc(N3CCC[C@H](C(=O)NCc4ncc(C(=O)N[C@H]5C(C)(C)[C@H](Oc6ccc(C#N)c(Cl)c6)C5(C)C)cn4)C3)cc1)=N[C@@H](Cc1ncco1)c1nnc(C)n1-2 [Compound I-331] | – | – | – | – | 500 to 1500 nM | < 500 nM | < 500 nM | 500 to 1500 nM |
| Cc1sc2c(c1C)C(c1ccc(N3CCC[C@H](C(=O)NCc4ncc(C(=O)N[C@H]5C(C)(C)[C@H](Oc6ccc(C#N)c(Cl)c6)C5(C)C)cn4)C3)cc1)=N[C@@H](Cc1ncco1)c1nnc(C)n1-2 [Compound I-332] | – | – | – | – | > 3000 nM | > 3000 nM | > 3000 nM | > 3000 nM |
| Cc1sc2c(c1C)C(c1ccc(C(=O)N3CCN(CCc4ncc(C(=O)N[C@H]5C(C)(C)[C@H](Oc6ccc(C#N)c(Cl)c6)C5(C)C)cn4)CC3)cc1)=N[C@@H](Cc1ncco1)c1nnc(C)n1-2 [Compound I-333] | > 3000 nM | > 3000 nM | > 3000 nM | > 3000 nM | – | – | – | – |
| Cc1sc2c(c1C)C(c1ccc(CN3CCO[C@@H](CNc4ncc(C(=O)N[C@H]5C(C)(C)[C@H](Oc6ccc(C#N)c(Cl)c6)C5(C)C)cn4)C3)cc1)=N[C@@H](Cc1ncco1)c1nnc(C)n1-2 [Compound I-334] | < 500 nM | < 500 nM | < 500 nM | < 500 nM | – | – | – | – |
| Cc1sc2c(c1C)C(c1ccc(CN(C)C(=O)CN(C)c3ncc(C(=O)N[C@H]4C(C)(C)[C@H](Oc5ccc(C#N)c(Cl)c5)C4(C)C)cn3)cc1)=N[C@@H](Cc1ncco1)c1nnc(C)n1-2 [Compound I-335] | 500 to 1500 nM | < 500 nM | 500 to 1500 nM | > 3000 nM | – | – | – | – |
| Cc1sc2c(c1C)C(c1ccc(N3CCCC(C(=O)N4CCC[C@H](c5ncc(C(=O)N[C@H]6C(C)(C)[C@H](Oc7ccc(C#N)c(Cl)c7)C6(C)C)cn5)C4)C3)cc1)=N[C@@H](Cc1ncco1)c1nnc(C)n1-2 (stereo partly shown) [Compound I-336] | < 500 nM | < 500 nM | 500 to 1500 nM | 500 to 1500 nM | – | – | – | – |
| Cc1sc2c(c1C)C(c1ccc(N3CCC[C@H](C(=O)N4CCC[C@@H](c5ncc(C(=O)N[C@H]6C(C)(C)[C@H](Oc7ccc(C#N)c(Cl)c7)C6(C)C)cn5)C4)C3)cc1)=N[C@@H](Cc1ncco1)c1nnc(C)n1-2 [Compound I-337] | < 500 nM | < 500 nM | < 500 nM | 500 to 1500 nM | – | – | – | – |
